Assay results as given in ChEMBL document CHEMBL1201862, “PubChem BioAssay data set” (2004).
The source made the active and inactive calls.

Legend:
[1] = microbe, parasite or virus in culture; assay type: functional; conditions: Mycobacterium tuberculosis
[2] = target: Major prion protein (Homo sapiens, UniProt P04156); assay type: functional, cell-based
[3] = cells
[4] = viability inhibitors of stage V gametocytes – luminescence, dose response (AID 1117278); assay type: functional, cell-based;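 further: gametocytes exposed to compound for 24 hours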
[5] = viability loss in human Jurkat cells – cell-based, luminescence, cytotoxicity control for P. falciparum gametocyte viability project, dose response (AID 1117277); assay type: functional;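 further: potency reflects loss of cellular ATP meaning fewer viable cells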
[6] = rise of 2N DNA cells, HeLa – IC50, dose response (AID 1117349); assay type: functional, cell-based
[7] = CellTiter-Glo luminescence survival assay, SW480 colon tumor line, concentration-response curve, half-maximal inhibitory concentration (AID 1117338); assay type: functional
[8] = RKO cell viability reduction, dose response, CellTiter-Glo luminescence (AID 1117322); assay type: functional
[9] = cytotoxicity toward HCT116 cells – cell-based, CellTiter-Glo luminescence, IC50, dose response (AID 1117332); assay type: functional; conditions: HCT-116
[10] = SNU-C1 cell viability reduction, dose response, CellTiter-Glo luminescence (AID 1117323); assay type: functional, cell-based
[11] = cytotoxicity toward Colo320 cells – cell-based, CellTiter-Glo luminescence, IC50, dose response (AID 1117334); assay type: functional; conditions: COLO 320
[12] = rise of 4N DNA cells, HeLa – IC50, dose response (AID 1117351); assay type: functional, cell-based
[13] = cytotoxicity toward HT-29 cells – cell-based, CellTiter-Glo luminescence, IC50, dose response (AID 1117330); assay type: functional
[14] = Reduced DLD-1 viability, concentration-response, CellTiter-Glo luminescence (AID 1117352); assay type: functional
[15] = HCT116 cell viability decrease, GSK3B pretreatment – CellTiter-Glo, IC50, dose response (AID 1117339); assay type: functional; conditions: HCT-116
[16] = target: E3 ubiquitin-protein ligase Mdm2 (Homo sapiens, UniProt Q00987); experiment: MDM2-luc reporter signal enhancers, multi-concentration potency testing, MDM2 ubiquitin-protein ligase inhibitor program, whole-cell format, luminescence detection, 384-well microplate (AID 1394); assay type: functional;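 further: MDM2 E3 inhibitors raise luminescence so EC50 is for signal enhancement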
[17] = P. falciparum Dd2 growth inhibitors, dose response, SYBR Green, cherry-picked samples (AID 1159567); assay type: functional, cell-based
[18] = toxicity to human hepatoma HepG2 cells – cell-based, cherry-picked samples, cytotoxicity control, dose response (AID 1159577); assay type: functional
[19] = NIH-3T3 fibroblast cytotoxicity, dose response, cytotoxicity control, cell-based, fluorescence, Alamar Blue, secondary assay (AID 2327); assay type: functional;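 further: NIH-3T3 mouse fibroblasts cultured with fluconazole at 8 µg/mL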
[20] = fluconazole-exposed Candida albicans growth modulators – fluorescence, retest, confirmation (AID 2467); assay type: functional, cell-based
[21] = target: Luciferin 4-monooxygenase (Photinus pyralis, UniProt P08659); experiment: inhibition of purified Photinus pyralis luciferase – biochemical, luminescence, dose response (AID 1891)
[22] = Luminescence Cell-Based Dose Confirmation HTS to Identify Inhibitors of Platelet Dense Granule Release. [Related pubchem assays: 1663 (Primary HTS), 1678 (Summary of Project)]; assay type: functional
[23] = target: Heat shock protein HSP 90-alpha (Homo sapiens, UniProt P07900); experiment: Luminescence-based dose response biochemical high throughput screening assay for inhibitors of the Heat Shock Protein 90 (HSP90). [Related pubchem assays: 1831 (Summary AID.), 1846 (Confirmation screen.), 1789 (Primary screen.)]
[24] = test system: INS1; experiment: INS-1E survival protection against cytokine death – cell-based, luminescence, retest, dose response (AID 449756); assay type: functional; conditions: Rattus norvegicus;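 further: cell death triggered by IL-1 beta plus TNF-alpha plus IFN-gamma mixture; protective hits raise ATP signal compared with cytokine alone wells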
[25] = target: T1, Apoptotic protease-activating factor 1 (Homo sapiens, UniProt O14727); assay type: functional
T1 sequence (O14727 whole entry): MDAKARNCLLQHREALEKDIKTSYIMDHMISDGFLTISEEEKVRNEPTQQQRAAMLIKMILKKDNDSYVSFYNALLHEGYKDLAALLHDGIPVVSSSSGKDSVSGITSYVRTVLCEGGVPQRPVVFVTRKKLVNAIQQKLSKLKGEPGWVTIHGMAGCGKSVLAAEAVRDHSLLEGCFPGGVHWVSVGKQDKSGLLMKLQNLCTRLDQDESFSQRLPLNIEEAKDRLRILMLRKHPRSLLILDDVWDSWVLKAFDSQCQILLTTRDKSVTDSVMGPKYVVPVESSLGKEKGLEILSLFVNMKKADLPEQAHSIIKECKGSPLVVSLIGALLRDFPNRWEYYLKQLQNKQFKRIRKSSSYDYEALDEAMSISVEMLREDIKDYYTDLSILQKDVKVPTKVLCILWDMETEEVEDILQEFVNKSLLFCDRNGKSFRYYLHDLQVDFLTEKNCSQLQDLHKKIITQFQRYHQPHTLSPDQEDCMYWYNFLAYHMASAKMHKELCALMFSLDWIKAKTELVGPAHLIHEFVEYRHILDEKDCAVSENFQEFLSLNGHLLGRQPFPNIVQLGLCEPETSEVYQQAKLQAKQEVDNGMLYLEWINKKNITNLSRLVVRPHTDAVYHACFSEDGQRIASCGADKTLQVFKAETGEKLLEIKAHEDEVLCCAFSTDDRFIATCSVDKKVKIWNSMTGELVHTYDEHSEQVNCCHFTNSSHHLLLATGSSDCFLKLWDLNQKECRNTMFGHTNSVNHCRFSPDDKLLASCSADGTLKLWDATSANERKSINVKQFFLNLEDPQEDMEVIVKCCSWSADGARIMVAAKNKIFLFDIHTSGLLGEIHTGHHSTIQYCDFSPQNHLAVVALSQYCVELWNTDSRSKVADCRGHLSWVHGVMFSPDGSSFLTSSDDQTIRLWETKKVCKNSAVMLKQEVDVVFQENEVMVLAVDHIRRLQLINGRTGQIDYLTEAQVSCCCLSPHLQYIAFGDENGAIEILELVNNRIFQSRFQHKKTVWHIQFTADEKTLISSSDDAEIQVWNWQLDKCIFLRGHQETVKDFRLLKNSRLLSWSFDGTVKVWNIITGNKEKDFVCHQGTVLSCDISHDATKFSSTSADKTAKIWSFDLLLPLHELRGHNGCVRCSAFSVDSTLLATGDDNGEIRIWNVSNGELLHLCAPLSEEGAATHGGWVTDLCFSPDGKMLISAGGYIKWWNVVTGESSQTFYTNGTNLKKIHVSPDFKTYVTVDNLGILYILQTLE

[26] = target: Tyrosyl-DNA phosphodiesterase 2 (Homo sapiens, UniProt O95551); experiment: potency against TDP2 phosphodiesterase activity – biochemical, epi absorbance, IC50, dose response (AID 743297)
[27] = target: T2, Estrogen receptor beta (Homo sapiens, UniProt Q92731);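 further: recombinant ER-beta bound to coactivator SRC1 peptide in presence of estradiol agonist; inhibitors block coactivator peptide binding and lower the FRET signal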
[28] = target: T2, Estrogen receptor beta; experiment: blockers of SRC-3 recruitment to ERβ – biochemical, ELISA, streptavidin-HRP readout, orthogonal assay, confirmation (AID 1060)
[29] = target: Mitogen-activated protein kinase 10 (Homo sapiens, UniProt P53779); experiment: Dose response biochemical screening assay for inhibitors of c-Jun N-Terminal Kinase 3 (JNK3). [Related pubchem assays: 746 ]

## CC1CCC(NC(=O)c2cc3c(s2)CCCC3)CC1 (centres undefined)
[1]
  CC50: > 40 µM (active)
[2]
  IC50: 4.39 µM (active)
[3]
  IC50: > 138 µM (inactive)

## COC(=O)CCCC(=O)NC(C)c1cnn(-c2ccccc2C)c1C (centres undefined)
[4]
  IC50: > 109 µM (inactive)
[5]
  IC50: > 83.3 µM (inactive)

## CCCSc1ccc2[nH]c(NC(=O)OC)nc2c1 [ALBENDAZOLE]
[6]
  IC50: 0.0656 µM (active)
[7]
  IC50: > 20 µM (inactive)
[8]
  IC50: 0.165 µM (active)
[9]
  IC50: 0.112 µM (active)
[10]
  IC50: > 20 µM (inactive)
[11]
  IC50: 0.502 µM (active)
[12]
  IC50: 0.0612 µM (active)
[13]
  IC50: > 20 µM (inactive)
[14]
  IC50: 0.108 µM (active)
[15]
  IC50: 0.158 µM (active)

## COCCNc1nc2nonc2nc1N(C)Cc1cccc2cnccc12
[16]
  EC50: 0.22 µM (not active)

## COc1ccccc1C#Cc1ccc([C@H]2[C@@H](C#N)N(C(=O)C3CCC3)[C@@H]2CO)cc1
[17]
  AC50: 4.98 µM (active)
[18]
  AC50: > 39 µM (inactive)

## CCCCOc1ccc(-c2cc(C(=O)NN=C(S)NCC)c3ccccc3n2)cc1
[19]
  EC50: 16.1 µM (inconclusive)
[20]
  EC50: 1.8 µM (active)
[21]
  EC50: 0.516 µM (active)
[22]
  EC50: < 0.701 µM (active)
[23]
  IC50: 2.45 µM (active)
[24]
  AC50: 3.2 µM (active)

## COc1cc2c(cc1O)[C@@H]1Cc3ccc(OC)c(O)c3CN1CC2 [SCOULERINE]
[25]
  IC50: 16.3 µM (active)
[26]
  IC50: > 128 µM (inactive)

## Cc1ccc(NC(=O)COc2ccc(-n3cnnn3)cc2)cc1C
[27]
  IC50: > 50 µM (not active)
[28]
  IC50: < 0.023 µM (not active)

## O=c1[nH]c2ccccc2c2nc3ccccn3c12
[29]
  IC50: 13.8 µM (not active)
